Results on four compounds are retold here after the NIST ThermoML archive (doi:10.1016/j.fluid.2013.08.029).

For this series the following is noted: 101.33 kPa, Liquid; for speed of sound: Sing-around technique in a fixed-path interferometer; for mass density: Vibrating tube method.

Numbers after ± are expanded uncertainties.

On to `OCCO` [1,2-ethanediol], for which the speed of sound is 1677.5 ± 2.2 m/s (288.15 K); 1665.6 ± 2.2 m/s (293.15 K); 1653.9 ± 2.2 m/s (298.15 K); 1642.2 ± 2.2 m/s (303.15 K); 1630.6 ± 2.2 m/s (308.15 K); 1618.9 ± 2.2 m/s (313.15 K). Moreover, the speed of sound (318.15 K) is listed as 1607.3 ± 2.2 m/s. Further, the mass density (293.15 K) worked out at 1113.35 ± 0.16 kg/m3, the mass density (303.15 K) is recorded as 1106.33 ± 0.16 kg/m3 and the mass density (313.15 K) was found to be 1099.26 ± 0.16 kg/m3.

In the case of `CCCCn1cc[n+](C)c1C.F[B-](F)(F)F` [1-butyl-2,3-dimethylimidazolium tetrafluoroborate], the speed of sound is, setting by setting: (288.15 K) 1668.6 ± 2.2 m/s; (293.15 K) 1654.9 ± 2.1 m/s; (298.15 K) 1641.4 ± 2.1 m/s; (303.15 K) 1628.7 ± 2.1 m/s; (308.15 K) 1616.9 ± 2.1 m/s; (313.15 K) 1605.1 ± 2.1 m/s. For the setting “318.15 K”, the speed of sound was determined as 1593.9 ± 2.1 m/s. The mass density amounted to 1199.9 ± 0.15 kg/m3 (288.15 K); 1196.72 ± 0.15 kg/m3 (293.15 K); 1193.34 ± 0.15 kg/m3 (298.15 K); 1189.92 ± 0.15 kg/m3 (303.15 K); 1186.52 ± 0.15 kg/m3 (308.15 K); 1183.17 ± 0.15 kg/m3 (313.15 K). For the same compound, for the setting “318.15 K”, the mass density is listed as 1179.54 ± 0.15 kg/m3.

Turning to `CCCCCn1cc[n+](C)c1.F[B-](F)(F)F` [1-methyl-3-pentyl-imidazolium tetrafluoroborate], the speed of sound was determined as 1565.2 ± 2.9 m/s (288.15 K); 1552.5 ± 2.9 m/s (293.15 K); 1540.2 ± 2.9 m/s (298.15 K); 1528.2 ± 2.9 m/s (303.15 K); 1516.3 ± 2.9 m/s (308.15 K); 1504.6 ± 2.9 m/s (313.15 K). The speed of sound (318.15 K) is listed as 1493.1 ± 2.9 m/s. Besides, the mass density is, setting by setting: (288.15 K) 1183.92 ± 1.2 kg/m3; (293.15 K) 1180.34 ± 1.2 kg/m3; (298.15 K) 1176.85 ± 1.2 kg/m3; (303.15 K) 1173.35 ± 1.2 kg/m3; (308.15 K) 1169.85 ± 1.2 kg/m3; (313.15 K) 1166.36 ± 1.2 kg/m3. Moreover, the mass density (318.15 K) amounted to 1162.85 ± 1.2 kg/m3.

`CCCCCn1cc[n+](C)c1.[Br-]` [1-pentyl-3-methylimidazolium bromide]: the speed of sound runs as follows: (288.15 K) 1678.6 ± 3 m/s; (293.15 K) 1644.2 ± 3 m/s; (298.15 K) 1617.5 ± 3 m/s; (303.15 K) 1596.4 ± 2.9 m/s; (308.15 K) 1578.9 ± 2.9 m/s; (313.15 K) 1563.7 ± 2.9 m/s. The speed of sound (318.15 K) is on record as 1550.2 ± 2.9 m/s. For the same compound, the mass density (288.15 K) stood at 1264.08 ± 1.4 kg/m3; the mass density (293.15 K) was 1260.52 ± 1.4 kg/m3; the mass density (298.15 K) worked out at 1256.87 ± 1.4 kg/m3; the mass density (303.15 K) amounted to 1253.05 ± 1.4 kg/m3; the mass density (308.15 K) is reported as 1249.57 ± 1.4 kg/m3; the mass density (313.15 K) came to 1246.17 ± 1.4 kg/m3. The mass density (318.15 K) worked out at 1242.76 ± 1.4 kg/m3.
